Experimental data published in patent US10053431B2, “Tetrahydro-benzodiazepinones” (priority 2013, dated 2018).
Where a name gives a salt, the structure may show the parent alone. Read-outs that look alike come from different tables or passages of the source.

Assays:
BIR3 domain of XIAP = BIR3 domain of XIAP (Homo sapiens (Human), UniProt P98170); test: TR-FRET assay for BIR3 (inhibition of binding of XIAP BIR3 domain to SMAC-derived Peptide A); conditions: 6x His-tagged BIR3 domain (aa 241-356 of XIAP) 10 nM, Peptide A 20 nM, TR-FRET
BIR2 domain of XIAP = BIR2 domain of XIAP (Homo sapiens (Human), UniProt P98170, C202A/C213G); test: TR-FRET assay for BIR2 (inhibition of binding of XIAP BIR2 domain to SMAC-derived Peptide A)
[1] = 6x His-tagged BIR2 domain (aa 124-240 of XIAP) 10 nM, Peptide A 20 nM, TR-FRET, read-out: IC50 BIR2

BIR3 domain of XIAP, sequence (P98170 241-356 with tags or gaps limits assumed): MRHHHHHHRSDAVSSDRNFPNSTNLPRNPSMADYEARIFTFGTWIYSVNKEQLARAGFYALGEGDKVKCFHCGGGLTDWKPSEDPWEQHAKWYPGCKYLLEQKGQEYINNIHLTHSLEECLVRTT
BIR2 domain of XIAP, sequence (P98170 124-240 with tags or gaps C202A/C213G limits assumed): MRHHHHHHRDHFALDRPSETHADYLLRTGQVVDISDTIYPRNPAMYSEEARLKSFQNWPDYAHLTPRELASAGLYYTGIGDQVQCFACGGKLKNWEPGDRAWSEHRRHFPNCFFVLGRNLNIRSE

Structure (SMILES) | IC50 (BIR3 domain of XIAP) | IC50 (BIR2 domain of XIAP; [1]) | IC50 (BIR2 domain of XIAP; IC50 BIR2)
CN[C@@H](C)C(=O)N[C@H]1CN(C(=O)c2ccc(C(C)=O)cc2)c2ccccc2N(Cc2c(OC)ccc3cc(C(=O)OC)ccc23)C1=O [Example 43, 5-[(S)-5-(4-Acetyl-benzoyl)-3-((S)-2-methylamino-propionylamino)-2-oxo-2,3,4,5-tetrahydro-benzo[b][1,4]diazepin-1-ylmethyl]-6-methoxy-naphthalen-2-carboxylic acid methyl ester hydrochloride] | 44100 nM | 57 nM | 
CN[C@@H](C)C(=O)N[C@H]1CN(C(=O)c2ccc(C(C)=O)cc2)c2ccccc2N(Cc2noc3cc(Br)ccc23)C1=O [Example 69e] | 50300 nM | 49 nM | 
CN[C@@H](C)C(=O)N[C@H]1CN(C(=O)CCS(C)(=O)=O)c2cc(C(F)(F)F)ccc2N(Cc2c(C3CC3)cnc3ccccc23)C1=O [Example 188, (S)-N-((S)-1-((3-cyclopropylquinolin-4-yl)methyl)-5-(3-(methylsulfonyl)propanoyl)-2-oxo-7-(trifluoromethyl)-2,3,4,5-tetrahydro-1H-benzo[b][1,4]diazepin-3-yl)-2-(methylamino)propanamide] | 25400 nM | 22.5 nM | 
CC[C@H](NCCO)C(=O)NC1C(=O)N(Cc2c(OC)ccc3c(Br)cccc23)c2ccccc2N(c2ccccc2)C1=O (stereo partly drawn) [Example 138, (2S)-N-(1-((5-bromo-2-methoxynaphthalen-1-yl)methyl)-2,4-dioxo-5-phenyl-2,3,4,5-tetrahydro-1H-benzo[b][1,4]diazepin-3-yl)-2-(2-hydroxyethylamino)butanamide] | > 54800 nM | 69.4 nM | 
CN[C@@H](C)C(=O)N[C@H]1CN(C(=O)c2ccccc2C(C)=O)c2ccccc2N(Cc2c(C)ccc3ccccc23)C1=O [Example 101, (S)—N—[(S)-5-(2-Acetyl-benzoyl)-1-(2-methyl-naphthalen-1-ylmethyl)-2-oxo-2,3,4,5-tetrahydro-1H-benzo[b][1,4]diazepin-3-yl]-2-methylamino-propionamide] | 53400 nM | 36 nM | 
CN[C@@H](C)C(=O)N[C@H]1CN(C(=O)CS(C)(=O)=O)c2cc(C#N)ccc2N(Cc2c(OC)ccc3ccccc23)C1=O [Example 166, (S)-N-((S)-7-cyano-1-((2-methoxynaphthalen-1-yl)methyl)-5-(2-(methylsulfonyl)acetyl)-2-oxo-2,3,4,5-tetrahydro-1H-benzo[b][1,4]diazepin-3-yl)-2-(methylamino)propanamide hydrochloride] | 43600 nM | 20 nM | 
CN[C@@H](C)C(=O)N[C@H]1CN(C(=O)c2cc(OC)c(OC)c(OC)c2)c2ccccc2N(Cc2c(C)ccc3ccccc23)C1=O [Example 13g] | > 54800 nM | 481 nM | 
CC[C@H](NC)C(=O)NC1C(=O)N(Cc2c(C)ccc3ccccc23)c2ccccc2N(c2ccccc2)C1=O (stereo partly drawn) [Example 115, (2S)-2-(methylamino)-N-(1-((2-methylnaphthalen-1-yl)methyl)-2,4-dioxo-5-phenyl-2,3,4,5-tetrahydro-1H-benzo[b][1,4]diazcpin-3-yl)butanamide] | > 54800 nM |  | 68.7 nM
CN[C@@H](C)C(=O)N[C@H]1CN(C(=O)CCCCC(=O)O)c2ccccc2N(Cc2c(C)ccc3ccccc23)C1=O [Example 60, 6-((S)-3-((S)-2-(methylamino)propanamido)-5-((2-methylnaphthalen-1-yl)methyl)-4-oxo-2,3,4,5-tetrahydro-1H-benzo[b][1,4]diazepin-1-yl)-6-oxohexanoic acid hydrochloride] | > 54800 nM | 166 nM | 
COc1ccc2ccccc2c1CN1C(=O)C(NC(=O)[C@H](C)N)C(=O)N(CC23CC4CC(CC(C4)C2)C3)c2ccccc21 (stereo partly drawn) [Example 111, (2S)-N-[5-(1-adamantylmethyl)-1-[(2-methoxynaphthalen-1-yl)methyl]-2,4-dioxo-1,5-benzodiazepin-3-yl]-2-aminopropanamide] | > 54800 nM | 295 nM | 
CN[C@@H](C)C(=O)N[C@H]1CN(C(=O)c2ccc(C(F)(F)F)cc2)c2ccccc2N(Cc2c(OC)ccc3cc(Br)ccc23)C1=O [Example 91d] | > 54800 nM | 18 nM | 
CN[C@@H](C)C(=O)N[C@H]1CN(C(=O)c2ccc(C)cc2)c2ccccc2N(Cc2c(OC)ccc3c(Br)cccc23)C1=O [Example 93, (S)—N—[(S)-1-(5-Bromo-2-methoxy-naphthalen-1-ylmethyl)-5-(4-methyl-benzoyl)-2-oxo-2,3,4,5-tetrahydro-1H-benzo[b][1,4]diazepin-3-yl]-2-methylamino-propionamide hydrochloride] | 47600 nM | 18 nM | 
CN[C@@H](C)C(=O)N[C@H]1CN(C(=O)c2ccccc2[C@H](C)O)c2ccccc2N(Cc2c(C)ccc3ccccc23)C1=O (stereo in doubt) [Example 148, (2S)-N-[(3S)-1-[2-[(1S)-1-hydroxyethyl]benzoyl]-5-[(2-methylnaphthalen-1-yl)methyl]-4-oxo-2,3-dihydro-1,5-benzodiazepin-3-yl]-2-(methylamino)propanamide;(2S)-N-[(3S)-1-[2-[(1R)-1-hydroxyethyl]benzoyl]-5-[(2-methylnaphthalen-1-yl)methyl]-4-oxo-2,3-dihydro-1,5-benzodiazepin-3-yl]-2-(methylamino)propanamide] | > 54800 nM | 40.1 nM | 
CN[C@@H](C)C(=O)N[C@H]1CN(C(=O)CC2CCOCC2)c2ccccc2N(Cc2c(C)ccc3ccccc23)C1=O [Example 96c] | 28100 nM | 106 nM | 
CN[C@@H](C)C(=O)N[C@H]1CN(C(=O)c2ccc(C(C)=O)cc2)c2ccccc2N(Cc2nn(-c3ccccc3C#N)c3ccccc23)C1=O [Example 120, (S)-N-((S)-5-(4-acetylbenzoyl)-1-((1-(2-cyanophenyl)-1H-indazol-3-yl)methyl)-2-oxo-2,3,4,5-tetrahydro-1H-benzo[b][1,4]diazepin-3-yl)-2-(methylamino)propanamide 2,2,2-trifluoroacetate] | > 54800 nM | 6.28 nM | 
CN[C@@H](C)C(=O)N[C@H]1CN(S(=O)(=O)c2ccc([N+](=O)[O-])cc2)c2ccccc2N(Cc2c(C)ccc3ccccc23)C1=O [Example 98d] | 29000 nM | 182 nM | 
CCN[C@@H](CC)C(=O)NC1C(=O)N(Cc2c(OC)ccc3c(Br)cccc23)c2ccccc2N(c2ccccc2)C1=O (stereo partly drawn) [Example 134, (2S)-N-(1-((5-bromo-2-methoxynaphthalen-1-yl)methyl)-2,4-dioxo-5-phenyl-2,3,4,5-tetrahydro-1H-benzo[b][1,4]diazepin-3-yl)-2-(ethylamino)butanamide] | > 54800 nM |  | 32.5 nM
CN[C@@H](C)C(=O)N[C@H]1CN(C(=O)Cc2cccnc2)c2ccccc2N(Cc2c(OC)ccc3c(Br)cccc23)C1=O [Example 88, (S)—N—((S)-1-((5-bromo-2-methoxynaphthalen-1-yl)methyl)-2-oxo-5-(2-(pyridin-3-yl)acetyl)-2,3,4,5-tetrahydro-1H-benzo[b][1,4]diazepin-3-yl)-2-(methylamino)propanamide hydrochloride] | 39900 nM | 14 nM | 
CN[C@@H](C)C(=O)N[C@H]1CN(C(=O)c2ccc(NC(C)=O)cc2)c2ccccc2N(Cc2c(OC)ccc3cc(Br)ccc23)C1=O [Example 76d] | 33200 nM | 5 nM | 
CN[C@@H](C)C(=O)N[C@H]1CN(C(=O)CS(C)(=O)=O)c2cc(C#N)ccc2N(Cc2c(OC)ccc3c(Br)cccc23)C1=O [Example 160, (S)-N-((S)-1-((5-bromo-2-methoxynaphthalen-1-yl)methyl)-7-cyano-5-(2-(methylsulfonyl)acetyl)-2-oxo-2,3,4,5-tetrahydro-1H-benzo[b][1,4]diazepin-3-yl)-2-(methylamino)propanamide hydrochloride] | > 54800 nM | 16.1 nM | 
CN[C@@H](C)C(=O)N[C@H]1CN(C(=O)c2ccc(C(C)=O)cc2)c2ccccc2N(Cc2c(C)ccc3ccccc23)C1=O [Example 13f] | > 54800 nM | 54 nM | 
CN[C@@H](C)C(=O)N[C@H]1CN(C(=O)c2ccc(C(C)(C)O)cc2)c2ccccc2N(Cc2c(OC)ccc3cc(Br)ccc23)C1=O [Example 95, (S)—N—{(S)-1-(6-Bromo-2-methoxy-naphthalen-1-ylmethyl)-5-[4-(1-hydroxy-1-methyl-ethyl)-benzoyl]-2-oxo-2,3,4,5-tetrahydro-1H-benzo[b][1,4]diazepin-3-yl}-2-methylamino-propionamide trifluoroacetate] | 36300 nM | 7 nM | 
CN[C@@H](C)C(=O)N[C@H]1CN(C(=O)C2CCOCC2)c2cc(C#N)ccc2N(Cc2nn(-c3ccccc3C#N)c3ccccc23)C1=O [Example 170, (S)-N-((S)-7-cyano-1-((1-(2-cyanophenyl)-1H-indazol-3-yl)methyl)-2-oxo-5-(tetrahydro-2H-pyran-4-carbonyl)-2,3,4,5-tetrahydro-1H-benzo[b][1,4]diazepin-3-yl)-2-(methylamino)propanamide hydrochloride] | > 54800 nM | 25.5 nM | 
CN[C@@H](C)C(=O)N[C@H]1CN(C(=O)CCCNC(=O)OCC2c3ccccc3-c3ccccc32)c2ccccc2N(Cc2c(OC)ccc3cc(C(=O)OC)ccc23)C1=O [Example 48, 5-[(S)-5-[4-(9H-Fluoren-9-ylmethoxycarbonylamino)-butyryl]-3-((S)-2-methylamino-propionylamino)-2-oxo-2,3,4,5-tetrahydro-benzo[b][1,4]diazepin-1-ylmethyl]-6-methoxy-naphthalene-2-carboxylic acid methyl ester hydrochloride] | 33200 nM | 23 nM | 
CN[C@@H](C)C(=O)N[C@H]1CN(C(=O)c2cccc(C#N)c2)c2ccccc2N(Cc2c(OC)ccc3cc(Br)ccc23)C1=O [Example 90c] | 21800 nM | 6 nM | 
